Data taken from US7101906B2, “2,3,4-substituted cyclopentanones as therapeutic agents” (Allergan, Inc., priority 2004, dated 2006).

Tests used:
HEP4 = biological target: T1, HEP4 (Homo sapiens, UniProt P35408); test: Radioligand binding, EP4 receptor; details: competition vs [3H]PGE2 5 nM, HEK-293 cell membranes
T1 construct: expressed in transfected cells; membrane fraction
Protocol: (§1) HEK-293 cells stably expressing the human or feline FP receptor, or EP1, EP2, or EP4 receptors were washed with TME buffer, scraped from the bottom of the flasks, and homogenized for 30 sec using a Brinkman PT 10/35 polytron. TME buffer was added to achieve a final 40 ml volume in the centrifuge tubes (the composition of TME is 100 mM TRIS base, 20 mM MgCl2, […]; 10N HCl is added to achieve a pH of 7.4).
(§2) The cell homogenate was centrifuged at 19000 r.p.m. for 20 min at 4° C. using a Beckman Ti-60 rotor. The resultant pellet was resuspended in TME buffer to give a final 1 mg/ml protein concentration, as determined by Biorad assay. Radioligand binding competition assays vs. [^3H-]17-phenyl PGF2α (5 nM) were performed in a 100 μl volume for 60 min. Binding reactions were started by adding plasma membrane fraction. The reaction was terminated by the addition of 4 ml ice-cold TRIS-HCl buffer and rapid filtration through glass fiber GF/B filters using a Brandel cell harvester. The filters were washed 3 times with ice-cold buffer and oven dried for one hour. Non-specific binding was determined with 10 uM unlabeled 17-phenyl PGF2α.
[^3H-] PGE2 (5 nM; specific activity 180 Ci mmol) was used as the radioligand for EP receptors. Binding studies employing EP1, EP2, EP3, EP4 were performed in duplicate in at least three separate experiments. A 200 μl assay volume was used. Incubations were for 60 min at 25° C. and were terminated by the addition of 4 ml of ice-cold 50 mM TRIS-HCl, followed by rapid filtration through Whatman GF/B filters and three additional 4 ml washes in a cell harvester (Brandel). Non-specific binding determined with 10^−5M of unlabeled PGE2.

hEP4/Gqs5 = biological target: T2, hEP4/Gqs5 (Homo sapiens, UniProt P35408); test: FLIPR calcium signal, hEP4/Gqs5; assay type: cell-based; details: HEK-293(EBNA) cells, read-out: Functional EC50 (nM) HEP4
T2 construct: expressed in transfected cells
T2 sequence (P35408 whole entry): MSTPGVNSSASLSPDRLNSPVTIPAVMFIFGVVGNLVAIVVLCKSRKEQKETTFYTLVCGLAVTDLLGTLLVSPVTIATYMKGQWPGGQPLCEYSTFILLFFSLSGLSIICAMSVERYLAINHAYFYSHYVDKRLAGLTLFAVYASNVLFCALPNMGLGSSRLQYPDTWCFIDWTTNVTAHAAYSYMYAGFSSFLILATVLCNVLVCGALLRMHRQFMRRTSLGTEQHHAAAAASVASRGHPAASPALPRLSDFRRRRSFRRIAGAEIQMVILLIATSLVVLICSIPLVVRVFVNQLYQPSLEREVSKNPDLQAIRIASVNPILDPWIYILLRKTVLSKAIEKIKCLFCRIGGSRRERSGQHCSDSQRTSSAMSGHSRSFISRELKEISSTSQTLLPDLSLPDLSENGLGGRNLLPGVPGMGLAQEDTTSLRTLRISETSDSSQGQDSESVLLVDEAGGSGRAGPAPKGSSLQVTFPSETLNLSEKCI
Protocol: (§3) HEK-293(EBNA) cells, stably expressing one type or subtype of recombinant human prostaglandin receptors (prostaglandin receptors expressed: hDP/Gqs5; hEP1; hEP2/Gqs5; hEP3A/Gqi5; hEP4/Gqs5; hFP; hIP; hTP), were cultured in 100 mm culture dishes in high-glucose DMEM medium containing 10% fetal bovine serum, 2 mM 1-glutamine, 250 μg/ml geneticin (G418) and 200 μg/ml hygromycin B as selection markers, and 100 units/ml penicillin G, 100 μg/ml streptomycin and 0.25 μg/ml amphotericin B.
(§4) Cells were seeded at a density of 5×10^4 cells per well in Biocoat® Poly-D-lysine-coated black-wall, clear-bottom 96-well plates (Becton-Dickinson) and allowed to attach overnight in an incubator at 37° C. Cells were then washed two times with HBSS-HEPES buffer (Hanks Balanced Salt Solution without bicarbonate and phenol red, 20 mM HEPES, pH 7.4) using a Denley Cellwash plate washer (Labsystems). After 45 minutes of dye-loading in the dark, using the calcium-sensitive dye Fluo-4 AM at a final concentration of 2 μM, plates were washed four times with HBSS-HEPES buffer to remove excess dye leaving 100 μl in each well. Plates were re-equilibrated to 37° C. for a few minutes.
(§5) Cells were excited with an Argon laser at 488 nm, and emission was measured through a 510–570 nm bandwidth emission filter (FLIPR™, Molecular Devices, Sunnyvale, Calif.). Drug solution was added in a 50 μl volume to each well to give the desired final concentration. The peak increase in fluorescence intensity was recorded for each well. On each plate, four wells each served as negative (HBSS-HEPES buffer) and positive controls (standard agonists: BW245C (hDP); PGE2 (hEP1; hEP2/Gqs5; hEP3A/Gqi5; hEP4/Gqs5); PGF2α (hFP); carbacyclin (hIP); U-46619 (hTP), depending on receptor). The peak fluorescence change in each drug-containing well was then expressed relative to the controls.
(§6) Compounds were tested in a high-throughput (HTS) or concentration-response (CoRe) format. In the HTS format, forty-four compounds per plate were examined in duplicates at a concentration of 10^−5 M. To generate concentration-response curves, four compounds per plate were tested in duplicates in a concentration range between 10^−5 and 10^−11 M. The duplicate values were averaged. In either, HTS or CoRe format each compound was tested on at least 3 separate plates using cells from different passages to give an n≧3.

hEP3A/Gqi5 = biological target: T3, hEP3A/Gqi5 (Homo sapiens, UniProt P43115); test: FLIPR calcium signal, hEP3A/Gqi5; assay type: cell-based; details: HEK-293(EBNA) cells, read-out: Functional EC50 (nM) HEP3A
T3 construct: expressed in transfected cells
T3 sequence (P43115 1-390): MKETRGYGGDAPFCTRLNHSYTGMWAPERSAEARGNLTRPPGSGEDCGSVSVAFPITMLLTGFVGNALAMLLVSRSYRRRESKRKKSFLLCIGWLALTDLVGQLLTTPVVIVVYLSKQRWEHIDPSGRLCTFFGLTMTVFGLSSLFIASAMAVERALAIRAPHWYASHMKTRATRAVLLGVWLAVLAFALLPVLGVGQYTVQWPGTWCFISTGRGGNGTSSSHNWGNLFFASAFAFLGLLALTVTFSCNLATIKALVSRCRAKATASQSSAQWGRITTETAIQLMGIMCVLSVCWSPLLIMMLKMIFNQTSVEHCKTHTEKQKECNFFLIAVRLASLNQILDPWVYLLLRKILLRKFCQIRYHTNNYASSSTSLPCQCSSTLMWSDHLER
Protocol: as §3, §4, §5, §6

hEP1 = biological target: T4, hEP1 (Homo sapiens, UniProt P34995); test: FLIPR calcium signal, hEP1; assay type: cell-based; details: HEK-293(EBNA) cells, read-out: Functional EC50 (nM) HEP1
T4 construct: expressed in transfected cells
T4 sequence (P34995 1-402): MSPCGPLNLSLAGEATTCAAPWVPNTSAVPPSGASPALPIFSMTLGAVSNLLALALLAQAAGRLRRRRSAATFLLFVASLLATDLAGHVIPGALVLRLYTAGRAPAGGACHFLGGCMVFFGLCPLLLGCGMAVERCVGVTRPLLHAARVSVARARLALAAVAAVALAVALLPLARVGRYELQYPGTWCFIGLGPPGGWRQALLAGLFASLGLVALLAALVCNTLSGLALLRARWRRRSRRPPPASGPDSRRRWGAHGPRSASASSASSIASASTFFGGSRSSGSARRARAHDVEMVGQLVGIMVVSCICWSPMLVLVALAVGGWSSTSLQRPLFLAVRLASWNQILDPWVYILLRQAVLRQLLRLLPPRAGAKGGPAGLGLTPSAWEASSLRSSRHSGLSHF
Protocol: as §3, §4, §5, §6

HEP2 = biological target: T5, HEP2 (Homo sapiens, UniProt P43116); test: Radioligand binding, EP2 receptor; details: competition vs [3H]PGE2 5 nM, HEK-293 cell membranes
T5 construct: expressed in transfected cells; membrane fraction
T5 sequence (P43116 whole entry): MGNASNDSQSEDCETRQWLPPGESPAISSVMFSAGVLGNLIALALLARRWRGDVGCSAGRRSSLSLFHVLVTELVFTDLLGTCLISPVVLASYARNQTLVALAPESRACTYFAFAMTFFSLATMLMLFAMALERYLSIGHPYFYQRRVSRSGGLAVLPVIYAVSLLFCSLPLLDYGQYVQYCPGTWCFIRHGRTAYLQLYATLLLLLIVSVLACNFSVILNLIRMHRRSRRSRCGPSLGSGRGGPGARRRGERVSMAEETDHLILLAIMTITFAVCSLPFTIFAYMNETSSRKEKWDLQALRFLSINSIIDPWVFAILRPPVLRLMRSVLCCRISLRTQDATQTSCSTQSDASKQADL
Protocol: as §1, §2
[^3H-] PGE2 (5 nM; specific activity 180 Ci mmol) was used as the radioligand for EP receptors. […] Non-specific binding determined with 10^−5M of unlabeled PGE2.

hTP = biological target: T6, hTP (Homo sapiens, UniProt P21731); test: FLIPR calcium signal, hTP; assay type: cell-based; details: HEK-293(EBNA) cells, read-out: Functional EC50 (nM) HTP
T6 construct: expressed in transfected cells
T6 sequence (P21731 1-343): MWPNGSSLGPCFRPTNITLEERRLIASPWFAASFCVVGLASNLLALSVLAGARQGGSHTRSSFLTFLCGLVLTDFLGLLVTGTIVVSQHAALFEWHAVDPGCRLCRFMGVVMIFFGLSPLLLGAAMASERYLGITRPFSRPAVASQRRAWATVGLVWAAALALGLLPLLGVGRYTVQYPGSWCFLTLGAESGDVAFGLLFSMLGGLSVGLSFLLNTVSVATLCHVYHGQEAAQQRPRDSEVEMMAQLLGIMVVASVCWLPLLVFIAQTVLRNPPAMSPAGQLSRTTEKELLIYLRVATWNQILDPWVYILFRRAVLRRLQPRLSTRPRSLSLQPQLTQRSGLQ
Protocol: as §3, §4, §5, §6

hEP2/Gqs5 = biological target: T7, hEP2/Gqs5 (Homo sapiens, UniProt P43116); test: FLIPR calcium signal, hEP2/Gqs5; assay type: cell-based; details: HEK-293(EBNA) cells, read-out: Functional EC50 (nM) HEP2
T7 construct: expressed in transfected cells
T7 sequence (P43116 whole entry): as the sequence (P43116 whole entry) above
Protocol: as §3, §4, §5
Compounds were tested in a high-throughput (HTS) or concentration-response (CoRe) format. […]

T1 sequence (P35408 whole entry): as the sequence (P35408 whole entry) above

Structure (SMILES)	IC50 (HEP4)	EC50 (hEP4/Gqs5)	EC50 (hEP3A/Gqi5)	EC50 (hEP1)	IC50 (HEP2)	EC50 (hTP)	EC50 (hEP2/Gqs5)
COC(=O)CCC/C=C\C[C@H]1C(=O)C[C@@H](C(C)C)[C@@H]1/C=C/C(O)CCc1sc2ccccc2c1Cl (some centres unmarked)	> 10000 nM						
CC(C)[C@@H]1CC(=O)[C@H](C/C=C\CCCC(=O)O)[C@H]1/C=C/C(O)CCc1sc2ccccc2c1Cl (some centres unmarked)	> 10000 nM	> 10000 nM					
C=C[C@@H]1CC(=O)[C@H](C/C=C\CCCC(=O)OC)[C@H]1/C=C/C(O)CCc1sc2ccccc2c1Cl (some centres unmarked)	> 10000 nM	1700 nM					
CC[C@@H]1CC(=O)[C@H](C/C=C\CCCC(=O)OC)[C@H]1/C=C/C(O)CCc1sc2ccccc2c1Cl (some centres unmarked)	> 10000 nM						
O=C(O)CCC/C=C\C[C@H]1C(=O)C[C@@H](CO)[C@@H]1/C=C/C(O)Cc1cc2ccccc2s1 (single isomer, unassigned) [drawing 36]		> 10000 nM	> 10000 nM	> 10000 nM		> 10000 nM	> 10000 nM
O=C(O)CCC/C=C\C[C@H]1C(=O)C[C@@H](CO)[C@@H]1/C=C/C(O)Cc1cc2ccccc2s1 (single isomer, unassigned) [drawing 37]		1770 nM	99 nM	9 nM			> 10000 nM

Second part, the molecule after the results:

IC50 (HEP4)	EC50 (hEP4/Gqs5)	EC50 (hEP3A/Gqi5)	EC50 (hEP1)	IC50 (HEP2)	EC50 (hTP)	EC50 (hEP2/Gqs5)	Structure (SMILES)
1800 nM	153 nM	> 10000 nM	> 10000 nM				C[C@@H]1CC(=O)[C@H](C/C=C\CCCC(=O)O)[C@H]1/C=C/C(O)CCc1sc2ccccc2c1Cl (some centres unmarked)
> 10000 nM	> 10000 nM						COC(=O)CCC/C=C\C[C@H]1C(=O)C[C@@H](C)[C@@H]1/C=C/C(O)CCc1sc2ccccc2c1Cl (some centres unmarked)
2100 nM	708 nM						CC[C@@H]1CC(=O)[C@H](C/C=C\CCCC(=O)O)[C@H]1/C=C/C(O)CCc1sc2ccccc2c1Cl (some centres unmarked)
650 nM	156 nM			> 10000 nM			C=C[C@@H]1CC(=O)[C@H](C/C=C\CCCC(=O)O)[C@H]1/C=C/C(O)CCc1sc2ccccc2c1Cl (some centres unmarked)
